Measured values: US7982042B2, “Thiozanthene derivatives as delta-opioid modulators” (priority 2003, dated 2011)
Like-named read-outs stand apart in the source and are kept apart here.

How the values were obtained:
[1] = target: T1, Rat brain delta opioid receptor (Rattus norvegicus, UniProt P33533); test: Rat brain delta opioid receptor binding
T1 construct: from tissue; host or cells: rat brain

[2] = target: T2, Rat brain mu opioid receptor (Rattus norvegicus, UniProt P33535); test: Rat brain mu opioid receptor binding assay ([3H]DAMGO)
T2 construct: from tissue; host or cells: forebrain of male Sprague Dawley rats
Description: • Procedure: Male, Sprague Dawley (150-250 g, VAF, Charles River, Kingston, N.Y.) are killed by CO2, and their brains removed and placed immediately in ice cold Tris HCl buffer (50 mM, pH 7.4). The forebrains are separated from the remainder of the brain by a coronal transection, beginning dorsally at the colliculi and passing ventrally through the midbrain-pontine junction. After dissection, the forebrains are homogenized in Tris buffer in a Teflon®-glass homogenizer. The homogenate is diluted to a concentration of 1 g of forebrain tissue per 80 mL Tris and centrifuged at 39,000×g for 10 min. The pellet is resuspended in the same volume of Tris buffer containing 5 mM MgCl2 with several brief pulses from a Polytron homogenizer. This particulate preparation is used for the mu-opioid binding assays. […] Kd and Ki values are calculated using GraphPad PRISM data analysis program.

[3] = target: T3, human delta opioid receptor (Homo sapiens, UniProt P41143); test: [35S]GTPγS binding assay in CHO-hδ cell membranes; format: biochemical; conditions: for inhibition at 10 µM: read-out: inhibition of GTP binding induced with 1 uM DPDPE
T3 construct: purchased Receptor Biology, Inc. (Baltimore, Md.); host or cells: CHO cells expressing the human delta receptor (membranes)
Description: CHO-hδ cell membranes are purchased from Receptor Biology, Inc. (Baltimore, Md.). 10 mg/ml of membrane protein is suspended in 10 mM TRIS-HC pH 7.2, 2 mM EDTA, 10% sucrose.
Membranes are maintained at 4-8° C. 1 ml of membranes is added into 15 ml cold binding assay buffer. The assay buffer contained 50 mM HEPES, pH 7.6, 5 mM MgCl2, 100 mM NaCl, 1 mM DTT and 1 mM EDTA. The membrane suspension is homogenized with a Polytron 2 times and centrifuged at 3000 rpm for 10 min. The supernatant is then centrifuged at 18,000 rpm for 20 min. The pellet is saved in a tube and 10 ml assay buffer is added into the tube. The pellet and buffer are mixed with a Polytron.
The pellet membranes (20 μg/ml) are preincubated with SPA (10 mg/ml) at 25° C. for 45 min in the assay buffer. The SPA (5 mg/ml) coupled with membranes (10 μg/ml) is then incubated with 0.5 nM [^35S]GTPgS in the same HEPES buffer containing 50 μM GDP in total volume of 200 μl. Increasing concentrations of receptor agonists are used to stimulate [^35S]GTPgS binding. The basal binding is tested in the absence of agonists and non-specific binding is tested in the presence of 10 μM unlabeled GTP S. The data are analyzed on a Top counter.

[4] = human delta opioid receptor GTPγS functional assay, read-out: hDOR GTPγS EC50
[5] = hDOR GTPγS EC50, human delta opioid receptor GTPγS functional assay

T1 sequence (P33533 whole entry): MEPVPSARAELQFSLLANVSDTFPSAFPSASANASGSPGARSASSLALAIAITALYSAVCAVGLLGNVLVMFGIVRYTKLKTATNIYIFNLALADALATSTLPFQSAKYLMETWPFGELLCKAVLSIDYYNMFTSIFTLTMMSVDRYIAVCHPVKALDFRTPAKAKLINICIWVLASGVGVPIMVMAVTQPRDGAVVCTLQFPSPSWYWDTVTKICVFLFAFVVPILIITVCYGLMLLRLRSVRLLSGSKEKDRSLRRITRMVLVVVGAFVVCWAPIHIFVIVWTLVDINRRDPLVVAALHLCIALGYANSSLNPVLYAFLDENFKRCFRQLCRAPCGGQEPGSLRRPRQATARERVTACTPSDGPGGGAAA
T2 sequence (P33535 whole entry): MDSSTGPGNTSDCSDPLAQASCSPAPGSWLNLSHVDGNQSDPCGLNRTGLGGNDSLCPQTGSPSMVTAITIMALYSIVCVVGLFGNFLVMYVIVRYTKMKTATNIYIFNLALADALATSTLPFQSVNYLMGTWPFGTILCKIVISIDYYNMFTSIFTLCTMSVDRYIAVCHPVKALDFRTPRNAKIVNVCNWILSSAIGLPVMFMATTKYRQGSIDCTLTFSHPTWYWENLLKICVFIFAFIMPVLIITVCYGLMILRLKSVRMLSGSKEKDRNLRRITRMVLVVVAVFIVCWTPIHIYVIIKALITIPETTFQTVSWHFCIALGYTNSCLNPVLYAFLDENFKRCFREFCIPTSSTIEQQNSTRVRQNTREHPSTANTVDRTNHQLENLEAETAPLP
T3 sequence (P41143 whole entry): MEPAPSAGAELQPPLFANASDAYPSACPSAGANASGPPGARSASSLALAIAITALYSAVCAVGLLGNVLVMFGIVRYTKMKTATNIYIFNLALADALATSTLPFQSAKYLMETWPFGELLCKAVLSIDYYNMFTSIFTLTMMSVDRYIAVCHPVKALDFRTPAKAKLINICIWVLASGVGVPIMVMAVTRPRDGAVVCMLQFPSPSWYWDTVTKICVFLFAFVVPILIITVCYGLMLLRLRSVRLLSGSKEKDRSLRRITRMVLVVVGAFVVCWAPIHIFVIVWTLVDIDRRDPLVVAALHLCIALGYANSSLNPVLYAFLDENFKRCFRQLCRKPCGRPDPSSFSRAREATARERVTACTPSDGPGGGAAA

| Compound | Ki ([1]; read-out: rDOR Ki) [nM] | Ki ([2]; read-out: rMOR Ki) [µM] | Ki ([1]; rDOR Ki) [nM] | Ki ([2]; rMOR Ki) [µM] | also measured |
| --- | --- | --- | --- | --- | --- |
| CCNC(=O)c1ccc2c(c1)Oc1ccccc1C2=C1CC2CCC(C1)N2 (single isomer, unassigned) [Compound 56] | 161 | 0.712 |  |  |  |
| CCN(CC)C(=O)c1ccc2c(c1)OCc1ccccc1C2=C1CCN(C)CC1 [Compound 1, 11-(1-Methyl-piperidin-4-ylidene)-6,11-dihydro-dibenzo[b,e]oxepine-3-carboxylic acid diethylamide] |  | 6.41 | 25.5 |  | EC50 [3, 4]: > 10000 nM; inhibition at 10 µM [3]: 61% |
| CCN(CC)C(=O)c1ccc2c(c1)OCc1ccccc1C2=C1CCNCC1 [Compound 2] |  |  | 0.91 | 2.63 | EC50 [3, 5]: 58.6 nM |
| CCN(CC)C(=O)c1ccc2c(c1)OCc1ccccc1C2=C1CCN(CCc2ccccc2)CC1 [Compound 5, 11-(1-Phenylethylpiperidin-4-ylidene)-6,11-dihydro-dibenzo[b,e]oxepine-3-caroboxylic diethylamide] |  | 1.29 | 25.3 |  | EC50 [3, 4]: > 10000 nM; inhibition at 10 µM [3]: 19% |
| C=CCN1CCC(=C2c3ccccc3COc3cc(C(=O)N(CC)CC)ccc32)CC1 [Compound 6, 11-(1-Allyl-piperidin-4-ylidene)-6,11-dihydro-dibenzo[b,e]oxepine-3-carboxylic acid diethylamide] |  | 7.91 | 4.25 |  | EC50 [3, 4]: 128 nM |
| CCNC(=O)c1ccc2c(c1)OCc1ccccc1C2=C1CCN(C)CC1 [Compound 9, 11-(1-Methyl-piperidin-4-ylidene)-6,11-dihydro-dibenzo[b,e]oxepine-3-carboxylic acid ethylamide] | > 100000 | > 100 |  |  |  |
| CCNC(=O)c1ccc2c(c1)OCc1ccccc1C2=C1CCN(C(=O)OCC(Cl)(Cl)Cl)CC1 [Compound 10, 4-(3-Ethylcarbamoyl-6H-dibenzo[b,e]oxepin-11-ylidene) -piperidine-1-carboxylic acid 2,2,2-trichloro-ethyl ester] | > 100000 | 92.5 |  |  |  |
| CCNC(=O)c1ccc2c(c1)OCc1ccccc1C2=C1CCNCC1 [Compound 11, 11-Piperidin-4-ylidene-6,11-dihydro-dibenzo[b,e]oxepine-3-carboxylic acid ethylamide] | 317 | 5.66 |  |  |  |
| CCNC(=O)c1ccc2c(c1)OCc1ccccc1C2=C1CCN(Cc2cccs2)CC1 [Compound 13] | 143 | 1.9 |  |  |  |
| C=C(C)CN1CCC(=C2c3ccccc3COc3cc(C(=O)NCC)ccc32)CC1 [Compound 14] | 432 | 4.82 |  |  |  |
| CCNC(=O)c1ccc2c(c1)OCc1ccccc1C2=C1CCN(Cc2ccc(O)c(OC)c2)CC1 [Compound 18] | 2000 | 2.42 |  |  |  |
| C=CCN1CCC(=C2c3ccccc3COc3cc(C(=O)NCC)ccc32)CC1 [Compound 19, 11-(1-Allyl-piperidin-4-ylidene)-6,11-dihydro-dibenzo[b,e]oxepine-3-carboxylic acid ethylamide] | 368 | 2.87 |  |  |  |
| CCNC(=O)c1ccc2c(c1)OCc1ccccc1C2=C1CCN(CCc2ccccc2)CC1 [Compound 20] | 23300 | 0.248 |  |  |  |
| CCN(CC)C(=O)c1ccc2c(c1)Oc1ccccc1C2=C1CC2CCC(C1)N2C [Compound 23, 9-(8-Methyl-8-aza-bicyclo[3.2.1]oct-3-ylidene)-9H-xanthene-3-carboxylic acid diethylamide] |  |  | 48.4 | 5.56 | EC50 [3, 5]: 245 nM |
| CCNC(=O)c1ccc2c(c1)Oc1ccccc1C2=C1CC2CCC(C1)N2CCc1ccccc1 [Compound 27] | 209 | 0.189 |  |  |  |
| CCNC(=O)c1ccc2c(c1)Oc1ccccc1C2=C1CCNCC1 [Compound 32, 9-Piperidin-4-ylidene-9H-xanthene-3-carboxylic acid ethylamide] |  | 1.49 | 73 |  |  |
| C#CCN1CCC(=C2c3ccccc3Oc3cc(C(=O)N(CC)CC)ccc32)CC1 [Compound 33, 9-(1-Prop-2-ynyl-piperidin-4-ylidene)-9H-xanthene-3-carboxylic acid diethylamide] |  |  | 16.5 | 5.42 |  |
| CCN(CC)C(=O)c1ccc2c(c1)Oc1ccc(NC(C)=O)cc1C2=C1CCNCC1 [Compound 34, 7-Acetylamino-9-piperidin-4-ylidene-9H-xanthene-3-carboxylic acid diethylamide] | > 10000 | > 10 |  |  |  |
| CCN(CC)C(=O)c1ccc2c(c1)Oc1ccc(NC(C)=O)cc1C2=C1CCN(C)CC1 [Compound 41, 7-Acetylamino-9-(1-methyl-piperidin-4-ylidene)-9H-xanthene-3-carboxylic acid diethylamide] | 5200 | > 10 |  |  |  |
| CCN(CC)C(=O)c1ccc2c(c1)Oc1ccccc1C2C1CCN(C)CC1 (centres unmarked) [Compound 43, 9-(1-Methylpiperidin-4-yl)-9H-xanthene-3-carboxylic acid diethylamide] |  |  |  | > 10 |  |

| Compound | Ki ([1]; read-out: rDOR Ki) [nM] | Ki ([2]; read-out: rMOR Ki) [µM] | Ki ([1]; rDOR Ki) [nM] | Ki ([2]; rMOR Ki) [µM] | also measured |
| --- | --- | --- | --- | --- | --- |
| CN(C)C(=O)c1ccc2c(c1)Oc1ccccc1C2=C1CC2CCC(C1)N2 [Compound 57] |  |  | 397 | 5.26 |  |
| CC(C)NC(=O)c1ccc2c(c1)Oc1ccccc1C2=C1CC2CCC(C1)N2 [Compound 58] |  |  | 1160 | 2.98 |  |
| CC(C)CN(C)C(=O)c1ccc2c(c1)Oc1ccccc1C2=C1CC2CCC(C1)N2 [Compound 59] |  |  | 10.6 | 3.34 |  |
| CCCN(CCC)C(=O)c1ccc2c(c1)Oc1ccccc1C2=C1CC2CCC(C1)N2 [Compound 60] |  |  | 4.62 | 0.836 |  |
| CCCNC(=O)c1ccc2c(c1)Oc1ccccc1C2=C1CC2CCC(C1)N2 [Compound 63] |  |  | 108 | 1.73 |  |
| CNC(=O)c1ccc2c(c1)Oc1ccccc1C2=C1CC2CCC(C1)N2 [Compound 64] |  |  | 118 | 0.711 |  |
| NC(=O)c1ccc2c(c1)Oc1ccccc1C2=C1CC2CCC(C1)N2 [Compound 65] |  |  | 197 | 0.858 |  |
| CCN(CC)C(=O)c1ccc2c(c1)Oc1ccc(C)cc1C2=C1CC2CCC(C1)N2 [Compound 67] |  |  | 54.4 | 10.9 |  |
| CCN(CC)C(=O)c1ccc2c(c1)Oc1cc(OC)ccc1C2=C1CC2CCC(C1)N2 [Compound 70, 9-(8-Aza-bicyclo[3.2.1]oct-3-ylidene)-6-methoxy-9H-xanthene-3-carboxylic acid diethylamide] |  |  | 2.31 | 5.74 |  |
| CCN(CC)C(=O)c1ccc2c(c1)Sc1ccccc1C2=C1CC2CCC(C1)N2Cc1c[nH]cn1 [Compound 74] |  |  | 3.79 | 0.848 |  |
| CCNC(=O)c1ccc2c(c1)Sc1ccccc1C2=C1CC2CCC(C1)N2 [Compound 80] |  |  | 260 | 0.473 |  |
| CCNC(=O)c1ccc2c(c1)Sc1ccccc1C2=C1CC2CCC(C1)N2 [Compound 81] |  |  | 77.6 | 0.838 |  |
| CCN(CC)C(=O)c1ccc2c(c1)Oc1ccc(Br)cc1C2=C1CC2CCC(C1)N2 [Compound 83] |  |  | 139 | 17.7 |  |
| CCN(CC)C(=O)c1ccc2c(c1)Oc1ccc(-c3ccncc3)cc1C2=C1CC2CCC(C1)N2 [Compound 85] |  |  | 3000 | 10.7 |  |
| CCN(CC)C(=O)c1ccc2c(c1)Oc1ccc(-c3ccoc3)cc1C2=C1CC2CCC(C1)N2 [Compound 86] |  |  | 1760 | 12.5 |  |
| CCN(CC)C(=O)c1ccc2c(c1)Oc1ccc(-c3ccsc3)cc1C2=C1CC2CCC(C1)N2 [Compound 90] |  |  | 836 | 12.4 |  |
| CCN(CC)C(=O)c1ccc2c(c1)Oc1ccc(-c3ccc[nH]3)cc1C2=C1CC2CCC(C1)N2 [Compound 93] |  |  | > 10000 | > 10 |  |
| CCN(CC)C(=O)c1ccc2c(c1)Oc1c(cccc1-c1ccccc1)C2=C1CC2CCC(C1)N2 [Compound 95, 9-(8-Aza-bicyclo[3.2.1]oct-3-ylidene)-5-phenyl-9H-xanthene-3-carboxylic acid diethylamide] |  |  | 25.4 | 6.52 |  |
| CCN(CC)C(=O)c1ccc2c(c1)Oc1c(cccc1-c1cnc3ccccc3c1)C2=C1CC2CCC(C1)N2 [Compound 98] |  | 7.36 | 24.5 |  |  |
| CCN(CC)C(=O)c1ccc2c(c1)Oc1c(F)cccc1C2=C1CC2CCC(C1)N2 [Compound 102] |  |  | 68 | 2.86 |  |
